The source of these data is ChEMBL document CHEMBL1136082, “Muscarinic M(3) receptor antagonists with (2R)-2-[(1R)-3,3-difluorocyclopentyl]-2-hydroxyphenylacetamide Structures. Part 2” (Bioorg Med Chem Lett, 2003).

By Ki is commonly meant a dissociation constant, usually derived from enzyme kinetics or from competition with a known ligand. Low values mean higher affinity, high ones lower affinity. One may read the Cmax as the maximum level reached in the sampled fluid or tissue. In general, half-life refers to how long it takes for the measured level to halve. Low readings indicate rapid decline, high ones slow decline. The bioavailability is dose-corrected exposure relative to a reference, in per cent. Low readings indicate poor availability, high ones good availability. By AUC is commonly meant the area under the concentration-time curve, a measure of exposure. Lower therefore signals low exposure.

Data set [1] deals with T1, Muscarinic acetylcholine receptor M1 (Homo sapiens, UniProt P11229).
T1 sequence (P11229 whole entry): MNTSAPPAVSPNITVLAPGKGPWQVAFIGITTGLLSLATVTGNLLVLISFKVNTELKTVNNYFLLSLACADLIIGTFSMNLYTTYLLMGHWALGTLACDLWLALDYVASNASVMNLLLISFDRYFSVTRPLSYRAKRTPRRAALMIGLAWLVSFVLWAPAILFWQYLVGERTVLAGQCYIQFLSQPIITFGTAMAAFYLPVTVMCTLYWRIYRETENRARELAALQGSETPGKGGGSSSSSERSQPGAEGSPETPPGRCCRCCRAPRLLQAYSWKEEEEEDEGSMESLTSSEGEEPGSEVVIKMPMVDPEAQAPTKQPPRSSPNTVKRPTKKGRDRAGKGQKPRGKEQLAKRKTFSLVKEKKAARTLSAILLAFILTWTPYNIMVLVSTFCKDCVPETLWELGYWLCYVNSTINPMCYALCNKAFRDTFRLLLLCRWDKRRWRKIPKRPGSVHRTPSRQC
Put plainly: Binding affinity against human Muscarinic acetylcholine receptor M1 in transfected CHO cells. The class given is cell-based.

In data set [2] the target is Muscarinic acetylcholine receptor M3 (Homo sapiens, UniProt P20309). Put plainly: Binding affinity against human muscarinic acetylcholine receptor M3 in transfected CHO cells. The class given is cell-based.
For data set [3], the target named is T2, Muscarinic acetylcholine receptor M2 (Homo sapiens, UniProt P08172).
T2 sequence (P08172 whole entry): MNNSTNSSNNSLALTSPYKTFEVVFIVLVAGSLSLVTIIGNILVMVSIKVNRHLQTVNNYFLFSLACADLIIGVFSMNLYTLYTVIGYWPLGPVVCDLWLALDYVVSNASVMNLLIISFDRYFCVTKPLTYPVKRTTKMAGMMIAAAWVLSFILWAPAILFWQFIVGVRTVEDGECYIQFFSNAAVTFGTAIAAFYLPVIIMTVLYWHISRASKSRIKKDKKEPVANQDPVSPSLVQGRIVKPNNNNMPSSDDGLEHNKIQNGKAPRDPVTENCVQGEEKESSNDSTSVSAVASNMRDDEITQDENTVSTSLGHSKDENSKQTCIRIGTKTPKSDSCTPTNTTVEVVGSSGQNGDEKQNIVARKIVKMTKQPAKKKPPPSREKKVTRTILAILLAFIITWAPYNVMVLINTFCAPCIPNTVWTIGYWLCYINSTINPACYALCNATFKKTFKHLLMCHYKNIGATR
Put plainly: Binding affinity against human muscarinic acetylcholine receptor M2 in transfected CHO cells. The class given is cell-based.

The nature of data set [4]: In vitro metabolic stability determined after 30 min of incubation in rat hepatic microsomes. Particulars: liver microsomes, read-out: Metabolic stability. Type of data set: ADME. A general note: Liver microsomes are vesicles of endoplasmic reticulum, rich in cytochrome P450 enzymes.
Data set [5] in a line: In vitro metabolic stability determined after 30 min of incubation in human hepatic microsomes. Type of data set: ADME. Conditions: liver microsomes, read-out: Metabolic stability.
A short description of data set [6]: In vitro metabolic stability determined after 30 min of incubation in dog hepatic microsomes. Type of data set: ADME, Canis lupus familiaris. Conditions: liver microsomes, read-out: Metabolic stability.
Data set [7] in a line: Vdss was determined after iv 0.1 mg/kg administration in dog. Conditions: in vivo, read-out: Vdss. On the set-up: dose 0.1 mg/kg, route intravenous. The class given is ADME, organism-based, Canis lupus familiaris.
Data set [8] in a line: Total clearance was determined after 0.1 mg/kg iv administration in dog. Further details: dose 0.1 mg/kg, route intravenous. The class given is ADME, organism-based, Canis lupus familiaris. Conditions: in vivo, read-out: CLtotal.
Data set [9] in a line: Cmax after 0.3 mg/kg po administration in dog. Type of data set: ADME, organism-based, Canis lupus familiaris. Further details: dose 0.3 mg/kg, route oral. Conditions: in vivo.
Data set [10] in a line: Half-life of the compound after 0.3 mg/kg po administration in dog. Type of data set: ADME, organism-based, Canis lupus familiaris. On the set-up: dose 0.3 mg/kg, route oral. Conditions: in vivo.
Data set [11] can be described thus: Oral bioavailability after 0.3 mg/kg po administration in dog. Type of data set: ADME, organism-based, Canis lupus familiaris. Particulars: in vivo.
Data set [12] is described as follows: Area under curve was determined after 0.3 mg/kg po administration in dog. Type of data set: ADME, organism-based, Canis lupus familiaris. Particulars: in vivo. On the set-up: dose 0.3 mg/kg, route oral.
A short description of data set [13]: Area under curve was determined after 0.1 mg/kg iv administration in dog. The class given is ADME, organism-based, Canis lupus familiaris. Further details: dose 0.1 mg/kg, route intravenous. Particulars: in vivo.

Muscarinic acetylcholine receptor M3, sequence (P20309 whole entry): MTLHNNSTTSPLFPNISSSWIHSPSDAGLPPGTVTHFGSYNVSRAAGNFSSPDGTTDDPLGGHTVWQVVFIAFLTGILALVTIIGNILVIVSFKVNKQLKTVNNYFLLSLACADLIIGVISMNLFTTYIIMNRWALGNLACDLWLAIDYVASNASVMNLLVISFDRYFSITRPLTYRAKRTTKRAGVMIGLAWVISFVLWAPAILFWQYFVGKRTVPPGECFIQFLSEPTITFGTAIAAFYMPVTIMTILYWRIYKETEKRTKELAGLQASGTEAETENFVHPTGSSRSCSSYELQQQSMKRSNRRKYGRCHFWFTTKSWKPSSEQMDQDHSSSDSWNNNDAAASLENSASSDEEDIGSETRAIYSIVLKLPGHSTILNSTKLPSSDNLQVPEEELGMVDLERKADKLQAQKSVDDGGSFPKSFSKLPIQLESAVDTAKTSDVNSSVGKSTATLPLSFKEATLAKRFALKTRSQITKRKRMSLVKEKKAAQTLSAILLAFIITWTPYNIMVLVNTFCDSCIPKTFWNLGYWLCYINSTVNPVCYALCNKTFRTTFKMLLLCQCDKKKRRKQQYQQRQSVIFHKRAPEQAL

Regarding `NCC=C1CCN(C(=O)[C@](O)(c2ccccc2)[C@@H]2CCC(F)(F)C2)CC1`, the Ki worked out at 1.3 nM in [1], 1.2 nM in data set [2] and 55 nM in data set [3].

`O=C(NCCC1CCNCC1)[C@](O)(c1ccccc1)[C@@H]1CCC(F)(F)C1`: the Ki in data set [1] came to 140 nM; in data set [2], 89 nM; in data set [3] it was 3900 nM.

Regarding `NCC1CCN(C(=O)[C@](O)(c2ccccc2)C2CCCC2)CC1`, the remaining at 0.5 h came to 72% in data set [4], 91% in [5] and 100% in [6]. Further, the inhibition constant (Ki) in [1] is 1.8 nM; in data set [2] it was 1.7 nM; in [3], 28 nM.

With `O=C(N1CCCNCC1)[C@](O)(c1ccccc1)[C@@H]1CCC(F)(F)C1`, the Ki in [1] is 14 nM; in data set [2], 17 nM; in data set [3], 1100 nM.

As for `NCCCC1CCN(C(=O)[C@](O)(c2ccccc2)[C@@H]2CCC(F)(F)C2)CC1`, the Ki in [1] turned out to be 92 nM; in data set [2], 47 nM; in [3], 2800 nM.

`NC1CCN(C(=O)[C@](O)(c2ccccc2)C2CCCC2)CC1`: the remaining at 0.5 h in data set [4] was 40%; in data set [5], 92%; in data set [6], 89%. Also, the Ki in data set [1] stood at 0.98 nM; in [2], 1.4 nM; in [3], 11 nM.

Turning to `CC(C)(N)CC1CCN(C(=O)[C@](O)(c2ccccc2)[C@@H]2CCC(F)(F)C2)CC1`, the Ki in [1] was determined as 37 nM; in data set [2], 26 nM; in [3], 1000 nM.

As to `CCC1(CCN)CCN(C(=O)[C@](O)(c2ccccc2)[C@@H]2CCC(F)(F)C2)CC1`, the results for the Ki in data set [1], in data set [2] and in data set [3] were 1 nM, 7 nM and 300 nM, respectively.

With `O=C(N1CCC(CCN2CCCCC2)CC1)[C@](O)(c1ccccc1)[C@@H]1CCC(F)(F)C1`, the inhibitory constant (Ki) was 1900 nM in data set [1], 2400 nM in data set [2] and 36000 nM in data set [3].

Consider `NCc1cccc(NC(=O)[C@](O)(c2ccccc2)[C@@H]2CCC(F)(F)C2)c1`, for which the Ki in [1] was 210 nM; in [2], 93 nM; in data set [3], 2900 nM.

Regarding `NCC1CCC(NC(=O)[C@](O)(c2ccccc2)[C@@H]2CCC(F)(F)C2)CC1` (stereo not given in full), the Ki worked out at 55 nM in data set [1], 100 nM in data set [2] and 6800 nM in data set [3].

Regarding `NC1CCN(C(=O)[C@](O)(c2ccccc2)[C@@H]2CCC(F)(F)C2)CC1`, the remaining at 0.5 h in data set [4] is 100%; in data set [5] it was 86%; in data set [6], 88%. Besides, the Ki in [1] was 3 nM; in [2], 5.1 nM; in [3], 240 nM.

`NCC1CCN(C(=O)[C@](O)(c2ccccc2)[C@@H]2CCC(F)(F)C2)CC1`: the remaining at 0.5 h came out at 98% in [4], 100% in data set [5] and 100% in [6]. Besides, the Ki amounted to 11 nM in data set [1], 11 nM in data set [2] and 760 nM in data set [3].

Take `O=C(NCC1CCNCC1)[C@](O)(c1ccccc1)[C@@H]1CCC(F)(F)C1`: the Ki in [1] turned out to be 23 nM; in data set [2] it was 17 nM; in [3] it was 2200 nM.

For `O=C(N1CCNCC1)[C@](O)(c1ccccc1)[C@@H]1CCC(F)(F)C1`, the Ki in [1] turned out to be 30 nM; in data set [2] it was 50 nM; in [3], 1200 nM.

As to `NCc1ccc(NC(=O)[C@](O)(c2ccccc2)[C@@H]2CCC(F)(F)C2)cc1`, the Ki in data set [1] came to 740 nM; in data set [2], 650 nM; in [3], 5300 nM.

For `NCCCCC1CCN(C(=O)[C@](O)(c2ccccc2)[C@@H]2CCC(F)(F)C2)CC1`, the Ki stood at 140 nM in data set [1], 76 nM in [2] and 4200 nM in data set [3].

On to `CC1(N)CCN(C(=O)[C@](O)(c2ccccc2)[C@@H]2CCC(F)(F)C2)CC1`, for which the Ki in data set [1] is 4.7 nM; in data set [2] it was 8.3 nM; in data set [3], 640 nM.

On to `Nc1cccc(CN2CCC(NC(=O)[C@](O)(c3ccccc3)[C@@H]3CCC(F)(F)C3)CC2)n1`, for which the figures for the remaining at 0.5 h in data set [4], in [5] and in data set [6] were 46%, 80% and 84%, respectively.

Turning to `NCCC1CCN(C(=O)[C@](O)(c2ccccc2)C2CCCC2)CC1`, the values for the remaining at 0.5 h in data set [4], in data set [5] and in data set [6] were 77%, 86% and 84%, respectively. Moreover, the values for the Ki in [1], in [2] and in [3] were 2.1 nM, 1.1 nM and 41 nM, respectively.

In the case of `O=C(Nc1ccc2c(c1)CNC2)[C@](O)(c1ccccc1)[C@@H]1CCC(F)(F)C1`, the Ki worked out at 630 nM in data set [1], 290 nM in data set [2] and 15000 nM in data set [3].

On to `O=C(NC1CCNCC1)[C@](O)(c1ccccc1)[C@@H]1CCC(F)(F)C1`, for which the values for the Ki in [1], in [2] and in data set [3] were 310 nM, 320 nM and 15000 nM, respectively.

As to `NCC(=O)N1CCN(C(=O)[C@](O)(c2ccccc2)[C@@H]2CCC(F)(F)C2)CC1`, the Ki in data set [1] amounted to 21 nM; in data set [2], 16 nM; in data set [3], 300 nM.

With `CN(C)CCC1CCN(C(=O)[C@](O)(c2ccccc2)[C@@H]2CCC(F)(F)C2)CC1`, the results for the Ki in data set [1], in [2] and in [3] were 760 nM, 930 nM and 15000 nM, respectively.

Consider `CC1(CCN)CCN(C(=O)[C@](O)(c2ccccc2)[C@@H]2CCC(F)(F)C2)CC1`, for which the figures for the Ki in data set [1], in data set [2] and in data set [3] were 1.5 nM, 3.3 nM and 210 nM, respectively.

For `CNCCC1CCN(C(=O)[C@](O)(c2ccccc2)[C@@H]2CCC(F)(F)C2)CC1`, the inhibitory constant (Ki) in [1] was 140 nM; in data set [2] it was 120 nM; in data set [3], 5400 nM.

Turning to `NCC1CCN(C(=O)[C@](O)(c2ccccc2)[C@@H]2CCC(F)(F)C2)C1` (stereo not given in full), the Ki in data set [1] came out at 2.1 nM; in [2] it was 2.9 nM; in data set [3], 130 nM.

Turning to `NCCC1CCN(C(=O)[C@](O)(c2ccccc2)[C@@H]2CCC(F)(F)C2)CC1`, in [7], the Vd turned out to be 9.4 L/kg. Besides, the clearance in [8] is 13 mL/min/kg. Further, the figures for the remaining at 0.5 h in data set [4], in [5] and in data set [6] were 100%, 82% and 100%, respectively. Also, the Ki in data set [1] amounted to 6.6 nM. In data set [9], this compound gave a Cmax of 43 ng/mL. This compound had a half-life in data set [10] of 6.9 h. In addition, the bioavailability in [11] came to 98%. Further, the AUC in data set [12] stood at 440 ng·h/mL; in data set [13] it was 150 ng·h/mL.

`NCCN1CCN(C(=O)[C@](O)(c2ccccc2)[C@@H]2CCC(F)(F)C2)CC1`: the Ki in data set [1] is 11 nM; in [2], 9.6 nM; in data set [3], 820 nM.
